Measurements taken from PubChem BioAssay AID256 (DTP/NCI, 2004).
Where “and” joins values, the source holds several entries; their conditions need not be identical. Identical values can stand only once. Inconclusive results and toxic doses are left out. Rule for the calls: active = survival T/C of 150% or more; inactive = T/C below 125% in these data.

Test system: CD2F1 mice, L1210 leukemia ip, survival T/C
Experiment: NCI In Vivo Anticancer Drug Screen. Data for tumor model L1210 Leukemia (intraperitoneal) in CD2F1 (CDF1) mice
Conditions: higher = longer survival
How it was run: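 Activity against a transplanted murine tumor was judged by comparing the compound group with a vehicle group. The outcome in the treated animals was divided by that in the controls.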

[1] = endpoint: mean survival time, dose: 100.0 mg/kg/injection, schedule: Q01DX009 (ip), vehicle: saline with Tween-80
[2] = endpoint: mean survival time, dose: 100.0 mg/kg/injection, schedule: Q04DX003 (ip), vehicle: saline with Tween-80
[3] = endpoint: mean survival time, dose: 200.0 mg/kg/injection, schedule: Q01DX009 (ip), vehicle: saline with Tween-80
[4] = endpoint: mean survival time, dose: 200.0 mg/kg/injection, schedule: Q04DX003 (ip), vehicle: saline with Tween-80
[5] = endpoint: mean survival time, dose: 400.0 mg/kg/injection, schedule: Q01DX009 (ip), vehicle: saline with Tween-80
[6] = endpoint: mean survival time, dose: 400.0 mg/kg/injection, schedule: Q04DX003 (ip), vehicle: saline with Tween-80
[7] = endpoint: mean survival time, dose: 50.0 mg/kg/injection, schedule: Q01DX009 (ip), vehicle: saline with Tween-80
[8] = endpoint: mean survival time, dose: 100.0 mg/kg/injection, schedule: Q01DX001 (ip), vehicle: saline with Tween-80

Measured: T/C

Nc1nc(N)c2c(Cl)c(CNc3ccc(C(=O)NC(CC(=O)O)C(=O)O)cc3)ccc2n1 (stereo unspecified)
inactive: endpoint: mean survival time, dose: 2.0 mg/kg/injection, schedule: Q01DX001 (ip), vehicle: saline 121 % of control | endpoint: mean survival time, dose: 2.0 mg/kg/injection, schedule: Q01DX009 (oral), vehicle: saline 94 % of control | endpoint: mean survival time, dose: 2.0 mg/kg/injection, schedule: Q03HX024 (ip), vehicle: saline 101 % of control | endpoint: mean survival time, dose: 2.0 mg/kg/injection, schedule: Q08DX002 (ip), vehicle: saline 104 % of control | endpoint: mean survival time, dose: 4.0 mg/kg/injection, schedule: Q01DX001 (oral), vehicle: saline 103 % of control | endpoint: mean survival time, dose: 4.0 mg/kg/injection, schedule: Q01DX009 (ip), vehicle: saline 120 % of control | endpoint: mean survival time, dose: 4.0 mg/kg/injection, schedule: Q01DX009 (sc), vehicle: saline 98 % of control | endpoint: mean survival time, dose: 8.0 mg/kg/injection, schedule: Q01DX009 (oral), vehicle: saline 118 % of control | endpoint: mean survival time, dose: 8.0 mg/kg/injection, schedule: Q03HX024 (ip), vehicle: saline 95 % of control | endpoint: mean survival time, dose: 16.0 mg/kg/injection, schedule: Q01DX001 (oral), vehicle: saline 120 % of control | endpoint: mean survival time, dose: 16.0 mg/kg/injection, schedule: Q01DX009 (ip), vehicle: saline 88 % of control | endpoint: mean survival time, dose: 16.0 mg/kg/injection, schedule: Q01DX009 (sc), vehicle: saline 87 % of control | endpoint: mean survival time, dose: 16.0 mg/kg/injection, schedule: Q03HX016 (ip), vehicle: saline 98 % of control | endpoint: mean survival time, dose: 32.0 mg/kg/injection, schedule: Q01DX009 (oral), vehicle: saline 93 % of control | endpoint: mean survival time, dose: 512.0 mg/kg/injection, schedule: Q01DX001 (sc), vehicle: saline 96 % of control

Nc1ccc2c(S(=O)(=O)O)ccc(O)c2c1
inactive: [1] 100 % of control | [2] 96 % of control | [3] 93 % of control | [4] 96 % of control | [5] 90 % of control | [6] 98 % of control

Cc1cc(O)c(C)c(C)c1N=Nc1ccccc1
inactive: endpoint: mean survival time, dose: 100.0 mg/kg/injection, schedule: Q01DX005 (ip), vehicle: saline with Tween-80 97 % of control | endpoint: mean survival time, dose: 200.0 mg/kg/injection, schedule: Q01DX005 (ip), vehicle: saline with Tween-80 97 % of control | endpoint: mean survival time, dose: 400.0 mg/kg/injection, schedule: Q01DX005 (ip), vehicle: saline with Tween-80 97 % of control

Cc1cc(C)c(C(=O)c2ccc(-c3ccccc3)cc2)c(C)c1
inactive: [1] 95 % of control | [2] 98 % of control | [3] 98 % of control | [4] 106 % of control | [5] 91 % of control | [6] 98 % of control

COc1c(NC(=O)Nc2ccccc2Cl)cccc1[N+](=O)[O-]
inactive: endpoint: mean survival time, dose: 25.0 mg/kg/injection, schedule: Q04DX002 (ip), vehicle: saline with Tween-80 87 % of control | endpoint: mean survival time, dose: 50.0 mg/kg/injection, schedule: Q04DX002 (ip), vehicle: saline with Tween-80 90 % of control | endpoint: mean survival time, dose: 100.0 mg/kg/injection, schedule: Q04DX002 (ip), vehicle: saline with Tween-80 90 % of control

COc1cc(CN(C)CCO)ccc1OCc1ccccc1
inactive: [2] 102 % of control | [4] 96 % of control

NCCC(=O)CN
inactive: endpoint: mean survival time, dose: 100.0 mg/kg/injection, schedule: Q01DX009 (ip), vehicle: saline 110 % of control | endpoint: mean survival time, dose: 100.0 mg/kg/injection, schedule: Q04DX003 (ip), vehicle: saline 100 % of control | endpoint: mean survival time, dose: 200.0 mg/kg/injection, schedule: Q01DX009 (ip), vehicle: saline 101 % of control | endpoint: mean survival time, dose: 200.0 mg/kg/injection, schedule: Q04DX003 (ip), vehicle: saline 107 % of control | endpoint: mean survival time, dose: 400.0 mg/kg/injection, schedule: Q01DX009 (ip), vehicle: saline 91 % of control | endpoint: mean survival time, dose: 400.0 mg/kg/injection, schedule: Q04DX003 (ip), vehicle: saline 98 % of control

CC(=O)CC(C)(C)N
inactive: [7] 94 % of control | [1] 97 % of control | [2] 97 % of control | [3] 92 % of control

CCC1(O)C(=O)OCc2c1cc1n(c2=O)Cc2cc3ccc(C(F)(F)F)cc3nc2-1 (stereo unspecified)
inactive: endpoint: median survival time, dose: 10.0 mg/kg/injection, schedule: Q04DX002 (ip), vehicle: saline with Tween-80 103 % of control | endpoint: median survival time, dose: 20.0 mg/kg/injection, schedule: Q04DX002 (ip), vehicle: saline with Tween-80 100 % of control | endpoint: median survival time, dose: 40.0 mg/kg/injection, schedule: Q04DX002 (ip), vehicle: saline with Tween-80 104 % of control | endpoint: median survival time, dose: 80.0 mg/kg/injection, schedule: Q04DX002 (ip), vehicle: saline with Tween-80 104 % of control

CCCCCCCCCCCCCCCCCCCOc1ccc(OCCCCCCCCCCCCCCCC)cc1
inactive: [8] 100 % of control | endpoint: mean survival time, dose: 200.0 mg/kg/injection, schedule: Q01DX001 (ip), vehicle: saline with Tween-80 96 % of control | endpoint: mean survival time, dose: 400.0 mg/kg/injection, schedule: Q01DX001 (ip), vehicle: saline with Tween-80 88 % of control

O=C1OC2(c3ccc(O)cc3Oc3cc(O)ccc32)C2C1C1(Cl)C(Cl)=C(Cl)C2(Cl)C1(Cl)Cl (stereo unspecified)
inactive: [1] 101 % of control | [3] 97 % of control | [5] 95 % of control

O=[N+]([O-])c1cnc(C2=C(O)c3ccccc3CC2)s1
inactive: endpoint: mean survival time, dose: 25.0 mg/kg/injection, schedule: Q01DX001 (ip), vehicle: saline with Tween-80 96 % of control | endpoint: mean survival time, dose: 50.0 mg/kg/injection, schedule: Q01DX001 (ip), vehicle: saline with Tween-80 96 % of control | [8] 100 % of control

CCc1cccc([N+](=O)[O-])c1CC
inactive: endpoint: mean survival time, dose: 25.0 mg/kg/injection, schedule: Q04DX003 (ip), vehicle: saline with Tween-80 97 % of control | endpoint: mean survival time, dose: 50.0 mg/kg/injection, schedule: Q04DX003 (ip), vehicle: saline with Tween-80 95 % of control | [2] 100 % of control and 105 % of control

O=C(Nc1ccc(Cl)cc1)Nc1ccccc1F
inactive: [1] 97 % of control | [3] 103 % of control | [5] 105 % of control

NC(C=O)C(O)C(O)C(O)CO (stereo unspecified)
inactive: endpoint: mean survival time, dose: 100.0 mg/kg/injection, schedule: Q04DX002 (ip), vehicle: saline 97 % of control | endpoint: mean survival time, dose: 200.0 mg/kg/injection, schedule: Q04DX002 (ip), vehicle: saline 97 % of control | endpoint: mean survival time, dose: 400.0 mg/kg/injection, schedule: Q04DX002 (ip), vehicle: saline 97 % of control

CC(=O)OCC1OC(OC(C)=O)C(NC(=O)N(CCN(C)CCO)N=O)C(OC(C)=O)C1OC(C)=O (stereo unspecified)
inactive: endpoint: mean survival time, dose: 4.06 mg/kg/injection, schedule: Q04DX002 (ip), vehicle: saline + alcohol 100 % of control | endpoint: mean survival time, dose: 8.13 mg/kg/injection, schedule: Q04DX002 (ip), vehicle: saline + alcohol 101 % of control | endpoint: mean survival time, dose: 16.25 mg/kg/injection, schedule: Q04DX002 (ip), vehicle: saline + alcohol 101 % of control | endpoint: mean survival time, dose: 32.5 mg/kg/injection, schedule: Q04DX002 (ip), vehicle: saline + alcohol 97 % of control | endpoint: mean survival time, dose: 65.0 mg/kg/injection, schedule: Q04DX002 (ip), vehicle: saline + alcohol 101 % of control | endpoint: mean survival time, dose: 130.0 mg/kg/injection, schedule: Q04DX002 (ip), vehicle: saline + alcohol 107 % of control

O=C1C2CC(Cl)C(SSC3CC4C(=O)N(SC(Cl)(Cl)C(Cl)Cl)C(=O)C4CC3Cl)CC2C(=O)N1SC(Cl)(Cl)C(Cl)Cl (stereo unspecified)
inactive: endpoint: median survival time, dose: 6.25 mg/kg/injection, schedule: Q01DX009 (ip), vehicle: saline with Tween-80 101 % of control | endpoint: median survival time, dose: 12.5 mg/kg/injection, schedule: Q01DX009 (ip), vehicle: saline with Tween-80 95 % of control | endpoint: median survival time, dose: 25.0 mg/kg/injection, schedule: Q01DX009 (ip), vehicle: saline with Tween-80 98 % of control and 100 % of control | endpoint: median survival time, dose: 50.0 mg/kg/injection, schedule: Q01DX009 (ip), vehicle: saline with Tween-80 101 % of control and 102 % of control | endpoint: median survival time, dose: 100.0 mg/kg/injection, schedule: Q01DX009 (ip), vehicle: saline with Tween-80 100 % of control and 102 % of control | endpoint: median survival time, dose: 200.0 mg/kg/injection, schedule: Q01DX009 (ip), vehicle: saline with Tween-80 102 % of control | endpoint: median survival time, dose: 400.0 mg/kg/injection, schedule: Q01DX009 (ip), vehicle: saline with Tween-80 105 % of control

O=[N+]([O-])c1cc(C(F)(F)F)cc([N+](=O)[O-])c1Cl
inactive: endpoint: mean survival time, dose: 1.56 mg/kg/injection, schedule: Q04DX003 (ip), vehicle: Klucel (hydroxypropylcellulose) (HPC) 98 % of control and 101 % of control | endpoint: mean survival time, dose: 3.12 mg/kg/injection, schedule: Q04DX003 (ip), vehicle: Klucel (hydroxypropylcellulose) (HPC) 98 % of control and 102 % of control | endpoint: mean survival time, dose: 6.25 mg/kg/injection, schedule: Q04DX003 (ip), vehicle: Klucel (hydroxypropylcellulose) (HPC) 95 % of control and 98 % of control | endpoint: mean survival time, dose: 12.5 mg/kg/injection, schedule: Q04DX003 (ip), vehicle: Klucel (hydroxypropylcellulose) (HPC) 90 % of control and 98 % of control

COc1ccc2c(c1O)CNCC2c1ccc(O)cc1O (stereo unspecified)
inactive: endpoint: mean survival time, dose: 75.0 mg/kg/injection, schedule: Q01DX001 (ip), vehicle: saline 100 % of control | endpoint: mean survival time, dose: 150.0 mg/kg/injection, schedule: Q01DX001 (ip), vehicle: saline 98 % of control

N.O=S(=O)(O)O.[Al]
inactive: [7] 97 % of control | [1] 91 % of control | [2] 94 % of control | [3] 96 % of control | [4] 99 % of control
